Measurements reported in ChEMBL document CHEMBL4422622, “Identification of Mineralocorticoid Receptor Modulators with Low Impact on Electrolyte Homeostasis but Maintained Organ Protection” (J Med Chem, 2019).

Legend:
[1] = Octanol-water partitioning co-efficient, log D of the compound at pH 7.4 by LC/MS/MS analysis; type: physicochemical
[2] = Intrinsic clearance in human hepatocytes assessed per million cells at 1 uM measured up to 120 mins in presence of NADPH by LC-MS/MS analysis; type: ADME, cell-based, Hepatocyte; settings: read-out: CLH
Rattus norvegicus [3] = assay: Induction of hyperkalemia in Sprague-Dawley rat fed on low salt diet for 72 hrs assessed as increase in Na+/K+ ratio in urine administered via oral gavage after 8 hrs; type: organism-based; settings: in vivo
Rattus norvegicus [4] = assay: Induction of hyperkalemia in Sprague-Dawley rat fed on low salt diet for 72 hrs assessed as increase in eplerenone-mediated Na+/K+ ratio in urine administered via oral gavage co-administered with after 8 hrs; type: organism-based; settings: in vivo
[5] = Fraction unbound in Han Wistar rat plasma at 1 uM after 4 hrs by LC/MS/MS analysis; type: ADME, cell-free
[6] = Intrinsic clearance in Han Wistar rat hepatocytes assessed per million cells at 1 uM after 4 hrs by LC/MS/MS analysis; type: ADME, cell-based, Hepatocyte; settings: read-out: CLH
[7] = Volume of distribution at steady state in Han Wistar rat at 1.2 mg/kg, iv by LC-MS/MS analysis; type: ADME, organism-based; settings: in vivo, read-out: Vdss
[8] = Clearance in Han Wistar rat at 1.2 mg/kg, iv by LC-MS/MS analysis; type: ADME, organism-based; settings: in vivo
[9] = Terminal half life in Han Wistar rat at 1.2 mg/kg, iv by LC-MS/MS analysis; type: ADME, organism-based; settings: in vivo, read-out: beta t1/2 (converted)
[10] = Oral bioavailability in Han Wistar rat at 48 mg/kg by LC-MS/MS analysis; type: ADME, organism-based; settings: in vivo
[11] = molecular target: T1, Mineralocorticoid receptor (Homo sapiens, UniProt P08235)
T1 sequence (P08235 whole entry): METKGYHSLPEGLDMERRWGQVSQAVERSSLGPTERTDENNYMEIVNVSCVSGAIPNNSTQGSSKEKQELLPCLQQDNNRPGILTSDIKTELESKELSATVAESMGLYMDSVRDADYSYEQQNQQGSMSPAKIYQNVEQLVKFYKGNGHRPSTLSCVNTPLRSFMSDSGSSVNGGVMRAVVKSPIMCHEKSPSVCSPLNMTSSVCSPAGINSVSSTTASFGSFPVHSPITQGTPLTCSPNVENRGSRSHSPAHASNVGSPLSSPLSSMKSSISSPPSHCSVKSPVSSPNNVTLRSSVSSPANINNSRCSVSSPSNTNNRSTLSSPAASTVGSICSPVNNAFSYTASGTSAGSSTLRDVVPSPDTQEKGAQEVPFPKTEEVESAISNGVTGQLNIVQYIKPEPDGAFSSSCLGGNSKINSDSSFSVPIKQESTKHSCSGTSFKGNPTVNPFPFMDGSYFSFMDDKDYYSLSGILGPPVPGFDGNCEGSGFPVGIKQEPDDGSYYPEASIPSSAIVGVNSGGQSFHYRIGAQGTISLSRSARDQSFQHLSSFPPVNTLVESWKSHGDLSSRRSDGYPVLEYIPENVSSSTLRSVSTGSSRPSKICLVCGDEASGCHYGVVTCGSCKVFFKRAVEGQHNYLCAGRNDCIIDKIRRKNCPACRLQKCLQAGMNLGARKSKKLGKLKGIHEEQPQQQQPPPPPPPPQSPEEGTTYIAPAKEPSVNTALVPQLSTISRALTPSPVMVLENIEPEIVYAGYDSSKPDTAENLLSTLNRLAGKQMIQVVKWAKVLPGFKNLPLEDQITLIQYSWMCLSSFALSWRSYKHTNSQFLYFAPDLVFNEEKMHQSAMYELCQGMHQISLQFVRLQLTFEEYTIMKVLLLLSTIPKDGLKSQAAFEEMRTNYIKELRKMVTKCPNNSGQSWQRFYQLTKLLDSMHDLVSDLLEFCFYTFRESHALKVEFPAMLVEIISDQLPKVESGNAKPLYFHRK
Description: Modulation activity at human mineralocorticoid receptor in human EA.hy926 cells assessed as induction of nuclear translocation of mineralocorticoid receptor in absence of aldosterone by receptor translocation assay

[12] = molecular target: T1, Mineralocorticoid receptor; remark: listed apart in the source
Description: Displacement of [3H]-aldosterone to human mineralocorticoid receptor LBD by radiometric binding assay

Glucocorticoid receptor = molecular target: T2, Glucocorticoid receptor (Homo sapiens, UniProt P04150)
T2 sequence (P04150 whole entry): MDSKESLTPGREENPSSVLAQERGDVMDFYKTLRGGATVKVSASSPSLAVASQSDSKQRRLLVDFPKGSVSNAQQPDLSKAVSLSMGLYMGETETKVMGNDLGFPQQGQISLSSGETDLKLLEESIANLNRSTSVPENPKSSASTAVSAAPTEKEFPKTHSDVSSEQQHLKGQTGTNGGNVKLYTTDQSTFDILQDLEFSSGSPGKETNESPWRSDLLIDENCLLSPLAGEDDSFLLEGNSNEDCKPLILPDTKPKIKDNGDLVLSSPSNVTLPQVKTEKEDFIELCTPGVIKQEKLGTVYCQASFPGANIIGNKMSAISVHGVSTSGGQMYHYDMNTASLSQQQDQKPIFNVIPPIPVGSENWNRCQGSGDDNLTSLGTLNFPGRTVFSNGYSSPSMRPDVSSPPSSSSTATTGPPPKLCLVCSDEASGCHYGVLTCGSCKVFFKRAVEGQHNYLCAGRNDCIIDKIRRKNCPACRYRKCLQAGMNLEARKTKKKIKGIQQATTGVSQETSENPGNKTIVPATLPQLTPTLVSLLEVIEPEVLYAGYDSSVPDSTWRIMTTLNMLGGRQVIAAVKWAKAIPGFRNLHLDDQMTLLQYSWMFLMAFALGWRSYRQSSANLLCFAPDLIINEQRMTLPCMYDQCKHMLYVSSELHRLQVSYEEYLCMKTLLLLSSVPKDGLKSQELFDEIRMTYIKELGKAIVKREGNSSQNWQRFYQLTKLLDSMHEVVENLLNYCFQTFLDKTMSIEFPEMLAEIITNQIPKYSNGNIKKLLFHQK
Description: Binding affinity to recombinant human GR LBD by fluormone GS red-fluorescence polarization assay

[13] = molecular target: T1, Mineralocorticoid receptor; remark: listed apart in the source
Description: Antagonist activity at gal4-fused human mineralocorticoid receptor LBD expressed in UAS-MR-bla HEK293 cells by luciferase reporter gene assay

[14] = molecular target: T3, Mineralocorticoid receptor (Rattus norvegicus, UniProt P22199)
T3 sequence (P22199 whole entry): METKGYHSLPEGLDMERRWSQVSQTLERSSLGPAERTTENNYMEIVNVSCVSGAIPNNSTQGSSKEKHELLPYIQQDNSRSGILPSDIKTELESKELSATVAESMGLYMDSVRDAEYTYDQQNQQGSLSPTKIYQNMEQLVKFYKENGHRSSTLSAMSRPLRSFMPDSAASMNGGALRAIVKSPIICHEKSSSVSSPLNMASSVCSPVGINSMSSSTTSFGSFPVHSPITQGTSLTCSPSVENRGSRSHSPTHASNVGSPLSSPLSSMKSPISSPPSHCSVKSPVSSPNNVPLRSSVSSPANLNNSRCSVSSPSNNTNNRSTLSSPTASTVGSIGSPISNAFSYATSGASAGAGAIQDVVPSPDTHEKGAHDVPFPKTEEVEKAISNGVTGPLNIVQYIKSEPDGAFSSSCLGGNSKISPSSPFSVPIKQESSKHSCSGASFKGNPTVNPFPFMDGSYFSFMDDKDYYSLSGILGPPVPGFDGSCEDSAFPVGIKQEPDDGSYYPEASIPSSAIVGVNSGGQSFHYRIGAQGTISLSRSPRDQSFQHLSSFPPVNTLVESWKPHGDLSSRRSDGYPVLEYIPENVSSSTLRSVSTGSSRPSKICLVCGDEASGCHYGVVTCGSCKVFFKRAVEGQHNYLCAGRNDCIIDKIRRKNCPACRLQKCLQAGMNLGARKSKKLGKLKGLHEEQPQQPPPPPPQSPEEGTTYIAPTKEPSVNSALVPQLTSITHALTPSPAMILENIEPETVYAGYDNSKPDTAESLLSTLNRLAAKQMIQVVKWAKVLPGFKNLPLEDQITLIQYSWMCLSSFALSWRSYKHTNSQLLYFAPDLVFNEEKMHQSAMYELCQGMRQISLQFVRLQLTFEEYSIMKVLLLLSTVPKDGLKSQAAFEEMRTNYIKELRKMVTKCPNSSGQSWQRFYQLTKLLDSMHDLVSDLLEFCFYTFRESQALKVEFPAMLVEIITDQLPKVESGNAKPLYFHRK
Description: Antagonist activity at gal4-fused rat mineralocorticoid receptor LBD in expressed in human U2OS cells by luciferase reporter gene assay

[15] = molecular target: T1, Mineralocorticoid receptor; remark: listed apart in the source
Description: Modulation activity at human mineralocorticoid receptor in human EA.hy926 cells assessed as blocking of nuclear translocation of mineralocorticoid receptor in presence of aldosterone by receptor translocation assay

- logD [1]: 1.8
- hepatocyte CLint at 1 µM [2]: 4.6 µL/min/1e6 cells
- fraction unbound at 4 h, 1 µM [5]: 0.34
- hepatocyte CLint at 1 µM [6]: 20 µL/min/1e6 cells
- Vd [7]: 0.8 L/kg
- clearance [8]: 32 mL/min/kg
- half-life [9]: 18 min
- bioavailability [10]: 45%
- EC50 [11]: > 10000 nM
- Ki [12]: 100 nM
- Ki (Glucocorticoid receptor): 158 nM
- IC50 [13]: 1000 nM
- IC50 [14]: 79.4 nM
- IC50 [15]: 100 nM
Structure (SMILES): CNC(=O)C[C@H]1COc2ccc(Cl)cc2N1C(=O)c1ccc2c(c1)NC(=O)CO2
- Activity (Rattus norvegicus [3]): Toxic
- Activity (Rattus norvegicus [4]): Toxic
